“Also recorded” adds a separate entry of the source.
Key:
CD40 [1] = assay: CD40 expression in Aβ-treated N9 and N60 microglial cells, flow cytometry; format: cell-based, murine
Description: Mononuclear cells from AD patients secrete markedly higher levels of IFN-γ compared to age-matched controls (18).

CD40 [2] = assay: CD40 expression in primary cultured microglia; format: cell-based, mice; conditions: microglia from control littermates exposed to exogenous peptide, vs Aβ40-1 or sAPPα-695
CD40 [3] = assay: CD40 cell ELISA on cultured HAEC; format: cell-based, human; conditions: Aβ 50 nM to 10,000 nM; IFN-γ 5 to 500 U/mL; 48 hours
Procedure: To determine if CD40 expression on cultured HAEC was IFN-γ or Aβ dose-dependent, CD40 cell ELISA assays were performed according to published procedures. Briefly, cultured HAEC were plated at 2×10^4 cells/well in flat-bottom, 96-well tissue culture plates (Nunc-Immuno™ Plate, Denmark). […] Other HAEC were treated with a dose range (5 U/mL to 500 U/mL) of IFN-γ. […] Forty-eight hours post-treatment, plates were fixed overnight at 4° C. in 1% paraformaldehyde diluted in 1×PBS, washed three times with wash buffer (0.5% Tween 20 in 1×PBS), and subsequently incubated with […] of blocking buffer (10% fetal bovine serum in wash buffer) for one hour at 37° C. Cells were then treated with purified anti-human CD40 antibody ([…], PharMingen, Los Angeles, Calif.) in […] of blocking buffer for one hour at 37° C. Plates were washed four times with wash buffer. Biotinylated anti-mouse IgG1 (PharMingen, Los Angeles, Calif.; 1:2,000 dilution in blocking buffer, […]) was added and incubated for one hour at 37° C., followed by the addition of […] of a 1:3,000 dilution of HRP-Streptavidin (ZYMED, San Francisco, Calif.) for thirty minutes at 37° C. Plates were washed 4× with wash buffer and developed for twenty minutes at room temperature using the 3, 3′, 5, 5′-tetramethylbenzidine (TMB) one-step substrate system (DAKO, Carpinteria, Calif.) followed by the addition of 100 μL/well of 2N H2SO4 to stop the reaction. Absorbance was measured at 450 nm using a microplate spectrophotometer (SPECTRAmax 250, Molecular Devices, Sunnyvale, Calif.).

IL-1β = assay: Human IL-1β release ELISA, HAEC with or without CD40 ligation; format: cell-based
Procedure: To examine if endothelial CD40 would be functional, cultured HAEC were plated at 5×10^4 cells/well in 6-well tissue culture plates (Nunc-Immuno™ Plate, Denmark) and incubated at 37° C. with human CD40L recombinant protein (CD40L, 0.5 ug/mL, kindly provided by Dr. Jean-Yves Bonnefoy, Glaxo Institute for Molecular Biology, Geneva) in fresh cultured media for eight hours, and cell-free supernatants were collected for IL-1β release assay. The assay for human IL-1β was performed in strict accordance with the manufacturer's instruction using the human Predicta™ IL-1β Kit (Genzyme). Absorbance at 450 nm was measured using a microplate spectrophotometer (SPECTRAmax 250, Molecular Devices, Sunnyvale, Calif.).
A second group of cells was subjected to these same treatments and incubated with CD40L ([…]) for eight hours following the initial 48 hour treatment period. IL-1β release was then quantified using a human IL-1β ELISA kit as described in materials and methods.

IFN-γ = IFN-γ secretion from HAEC, ELISA; format: cell-based, human; conditions: 24 hours
Procedure: The assay for either IL-1β or IFN-γ was performed in strict accordance with the manufacturer's instructions for the respective assay kits.
(§1) Activation of CD40 signalling can be achieved by stimulation with either CD40L or certain anti-CD40 mAbs. Since synthetic CD40L is not commercially available, one of the anti-CD40 mAbs (clone 3/23), which has been reported to activate CD40 signalling, was used to mimic the effect of interaction of CD40-CD40L. All Aβ-treated cells were incubated with 1 μg/ml anti-CD40 mAb […]) for four hours followed by CELISA.
The resulting cell culture media were assayed for IL-1β or IFN-γ using ELISA. […] The lowest effective concentration was determined to be 100 nM for IFN-γ ([…]). The lowest effective concentration was determined to be 100 nM for IFN-γ (p<0.01) and 1 μM for IL-1β (p<0.01).

IFN-γR = IFN-γR expression in HAEC, cell-ELISA (CELISA) and Western blotting; format: cell-based, human
Procedure: (§2) In vitro measurement of Aβ-induced changes in expression of the inflammatory cell-surface molecules CD40 and […] in cultured HAEC and HASM cells was performed using a slightly modified ABC-based cell-ELISA (CELISA). […] After PBS washes, 4% neutral formalin solution (Sigma) was used for fixation of the cells. Following quenching of the endogenous peroxidase activity with 3% H2O2 and routine blocking of non-specific binding, the biotinylated specific secondary antibodies against the primary antibodies (goat anti-mouse or anti-rabbit IgG) were applied. The combination of EXTRAVIDIN® Proxidase and the subsequent color reaction was performed strictly according to the manufacturer's instructions in the EXTRAVIDIN® Peroxidase Staining Kit (Sigma). The absorbance of 405 nm was then measured using a microplate reader (SPECTRAmax 250, Molecular Devices). The optical density (O.D.) value for the wells in the absence of the primary antibody for each group was considered as background and subtracted as the blank. In addition, stimulation with IFN-γ for CD40 was included as a positive control in the appropriate plate. Since CD45 is not expressed by endothelial or smooth muscle cells, the assays for expression of CD45 in these Aβ-treated cells were used as negative controls throughout the experiment. In addition, to evaluate the degree of cell death or proliferation in the Aβ-treated, cells, parallel experiments were performed using the MTS (3-(4,5-dimethylthiazol-2-yl)-5-(3-carboxymethoxyphenyl)-2-(4-sulfophenyl)-2H-tetrazolium) cell-proliferation kit (Promega).
as §1
The total protein was estimated using the Bio-Rad protein assay. An aliquot corresponding to 100 μg of total protein of each sample was separated by SDS/PAGE (polyacrylamide gel electrophoresis) and transferred electrophoretically to PVDF filters. Non-specific binding of antibody was blocked with 5% non-fat dry milk, in 20 mM Tris/HCl, pH 7.5/150 mM NaCl/0.1% Triton X-100. Immunoblotting was carried out with the appropriate antibody followed by alkaline phosphatase-conjugated secondary anti-immunoglobulin antibodies. These were then developed by the chemiluminescence method (Bio-Rad).

CD40 [4] = assay: CD40 expression in HAEC, cell-ELISA (CELISA); format: cell-based, human
Procedure: as §2

TNF-α = conditions: high doses, literature (Meda et al.); cited from earlier work

Aβ1-42: amyloid β peptide 1-42, freshly solubilized
CD40 expression on cultured microglial cells (CD40 [1]; 250 nM freshly solubilized peptide, N9 and N60 cells, vs control peptide or Aβ-free): significantly induce CD40 expression | dose dependence of microglial CD40 expression (CD40 [1]; from 50 to 1250 nM, N9 cells): induces microglial CD40 expression in a dose-dependent manner; also recorded: induced microglial CD40 expression in a dose dependent manner | CD40 expression in primary cultured microglia (CD40 [2]): CD40 expression is increased | dose dependence of endothelial CD40 (CD40 [3]): marked increase in endothelial CD40 which is dose-dependent | IL-1β release following CD40 ligation (IL-1β; 48 hour pre-treatment, then CD40L for eight hours): synergistic effect | IL-1β release in the absence of CD40L stimulation (IL-1β; Aβ 500 nM, IFN-γ 10 U/mL, 48 hours): not sufficient to elicit IL-1β | lowest effective concentration for IFN-γ secretion (IFN-γ): 100 nM | IFN-γ secretion, dose dependence (IFN-γ; increasing concentrations): increases the secretion of IL-1β and IFN-γ in a dose-dependent manner | Aβ-induced IFN-γR expression in HAEC on CD40 ligation (IFN-γR; 1 μg/ml mAb (3/23), four hours): significant effect | IFN-γR expression in HAEC (IFN-γR; 48 hours): preferentially activates endothelial cells rather than smooth muscle cells | CD40 expression in HAEC, dose dependence (CD40 [4]): dose-dependently increase CD40 expression | lowest effective concentration for CD40 expression (CD40 [4]; HAEC): 100 nM | dose able to produce increased TNF-α production in microglial cells (TNF-α): > 11 µM
